From US10576145B2, “CD200 inhibitors and methods of use thereof” (REGENTS OF THE UNIVERSITY OF MINNESOTA, priority 2014, dated 2020)
“Also recorded” adds a separate entry of the source.

Columns and labels:
[1] = tested on: splenocytes; experiment: Splenocytes pulsed with OVA + antagonist, OT-1 T cells added, cytokine production by flow cytometric bead array; format: cell-based; conditions: pulsed 24 hours, 48 hours with OT-1 T cells
Method: FIGS. 11A-11B. Splenocytes were pulsed with OVA+an inhibitor peptide and incubated for 24 h. Following incubation, cells were washed, purified OT1 were added to wells and incubated for an additional 48 hrs then analyzed for FIG. 11A) TNFa and IL-6 production; and FIG. 11B) IL-2 and IL-17 production. Error bars indicate +/−SEM (n=4/group; *P<0.05; ** P<0.01).
Whether the different antagonists described by Gorczynski et. al. (J Surg Res 2008; 145(1): 87-96) could modulate or reverse the suppressive effects of the tumor microenvironment was also investigated. It was concluded that different antagonists either act through different CD200R isoforms or have different biological effects on the same receptor. These conclusions were supported by experiments where splenocytes were pulsed with OVA+selected CD200R antagonists (6061, 6069, 4004, 4006, 4013) for 24 hours. The splenocytes were then washed and cultured for 48 hours with the addition of OT-1 T cells. The cultures were then assessed for cytokine production using a flow cytometric bead array. […] These experiments support the hypothesis that exosomes express the CD200 protein thereby inhibiting the ability to prime a T cell response in the draining lymph nodes of glioma bearing mice. Other antagonists were similarly evaluated.

[2] = tested on: GL261 tumor bearing mice; experiment: GL261 glioma model: tumor lysate vaccine +/- antagonist, tumor growth by imaging and survival; format: in vivo, C57BL/6 mice; conditions: for Tumor growth: GL261, tumor lysate vaccine + antagonist vs tumor lysate alone or saline, weekly imaging; for Survival: GL261 glioma model, tumor lysate vaccine + antagonist
Method: FIGS. 4A-4C. FIG. 4A) GL261 tumor bearing mice were inoculated with 50 μg of antagonist 6059 one day prior to vaccination with tumor lysate (65 μg)+/−the antagonist 6059 (50 μg). FIG. 4B) Mice were imaged weekly for tumor growth. The following groups were studied: saline (1), tumor lysate (2), and tumor lysate+6059 (3). FIG. 4C) Percent survival post inoculation for saline (1), tumor lysate (2), and tumor lysate+6059 (3) groups.
FIGS. 5A-5B. FIG. 5A) GL261 tumor bearing mice were inoculated with 10 μg of 6059 on day 2 into the tumor site then with 50 μg of antagonist 6059 one day prior to vaccination with tumor lysate (65 μg)+the antagonist 6059 (50 μg). FIG. 5B) Mice were imaged weekly for tumor growth. The following groups were studied: saline (1), tumor lysate+6059 (2), and CNS+tumor lysate+6059 (3) groups.
Whether vaccination with CD200R antagonists could enhance the survival of tumor-bearing mice was also studied. […] GL261 tumor bearing mice were vaccinated weekly with saline, tumor lysates (TL) or tumor lysates+an antagonist (4004, 4013, 6059).
Tumor-bearing mice were inoculated in the brain with 10 μg of the inhibitor 6059 at the same coordinates at which the tumor was injected two days previously. This was followed by weekly injections of tumor lysate+inhibitor (FIGS. 5A-5B).
(§1) Tumors were implanted into female C57BL/6 mice (6-8 wk old) (Jackson Laboratory) and maintained in a pathogen-free facility according to the guidelines of the University of Minnesota Animal Care and Use Committee. The GL261 orthotopic transplant model was established in C57BL/6 (B6) mice by inoculation with 15,000 GL261-Luc^+ cells in 1 μl of saline. Tumors were implanted stereotactically into the right striatum; coordinates were 2.5 mm lateral, 0.5 mm anterior of bregma, and 3 mm deep from the cortical surface of the brain^19. Tumor burden was determined by bioluminescent imaging. Light emitted from the tumors was quantified using Living Image software (Xenogen) and expressed as photons per second per centimeter squared per steradian (p/s/cm^2/sr). GL261 cells for tumor lysate vaccines were cultured in neural stem cell media consisting of DMEM/F12 (1:1) with L-glutamine, sodium bicarbonate, penicillin/streptomycin (100 U/ml), B27 and N2 supplements (Life Technologies), and 0.1 mg/ml Normocin (Invivogen). Cultures were maintained at 5% 02 and supplemented with 20 ng/ml EGF and FGF semiweekly (R&D Systems, Minneapolis, Minn.). […] Mice were euthanized when tumors reached 1000 mm^3. […] Tumor cells used to establish both models were cultured in DMEM containing 10% FBS, penicillin/streptomycin (100 U/ml), and 0.1 mg/ml Normocin (Invivogen) in atmospheric oxygen.
Tumor lysates were prepared by dissociating tumor cells with non-enzymatic dissociation solution (Sigma). Cells were then washed 3 times with PBS, re-suspended in 500 μL PBS, and frozen overnight at −80° C. Cells were then lysed by five freeze/thaw cycles of freezing in liquid nitrogen and thawing in a 55° C. water bath. Cell debris was pelleted by centrifugation at 14,000 RCF, and the protein concentration of the supernatant was determined using a Bradford assay. Lysates were stored at −80° C. until use. Each vaccine was prepared on the day of vaccination and consisted of 65 μg of protein tumor lysate and 10 μg Poly:ICLC (Oncovir, Inc.), with or without 50 μg of the 6059 peptide antagonist, in a final volume of 100 μL injected intradermally in the back of the neck. For survival studies, vaccines were administered weekly starting three days post-tumor implantation for a total of 6 doses. In T cell priming experiments, CD8 T-cell priming experiments, animals were vaccinated intradermally on four consecutive days with 100 μg Ovalbumin (OVA) and 10 μg Poly:ICLC, and once more on day eleven^19.

[3] = tested on: EMT6 tumor bearing mice; experiment: EMT6 breast carcinoma model: tumor lysate + CpG +/- competitive inhibitor, survival; format: in vivo, BALB/c mice
Method: FIG. 6. Percent survival of mice inoculated with 1×10^6 EMT6 cells. To determine if our competitive inhibitors worked in other tumor models, mice were inoculated in the fat pad with 1×10^6 EMT6 cells. Specifically, mice were vaccinated with 65 μg of EMT6 tumor lysates+50 μg of adjuvant CpG and 50 μg of different completive inhibitors (6059, 4004, 4013 and 6061) and monitored for survival. Saline and tumor lysate+adjuvant CpG were used as controls.
FIGS. 19A-19B. Select CD200 antagonists enhance survival. (FIG. 19A) EMT6 tumor bearing mice were vaccinated with tumor lysate, CpG+/−CD200 antagonist 4004, 4013 or 6059. […] Log-rank analysis was used for survival.
as §1

[4] = tested on: mice; experiment: MDSC expansion in blood of mice vaccinated with tumor lysate + CpG +/- inhibitor; format: in vivo; conditions: tumor lysate+CpG+inhibitor vs tumor lysate+CpG, listed as P1A12
Method: FIG. 23. […] Mice were vaccinated as described in FIG. 4 with peptide inhibitor P1A12. Blood from mice vaccinated with tumor lysate+CpG or tumor lysate+CpG+inhibitor were analyzed for MDSC expansion.
(§2) Mice were vaccinated as described in FIGS. 4A-4C with peptide inhibitor P1A12. Blood from mice vaccinated with tumor lysate+CpG or tumor lysate+CpG+inhibitor were analyzed for MDSC expansion (FIG. 23). […] CD11b cells isolated for wild type or CD200 receptor knock out mice were pulsed with OVA+Poly:ICLC+/−P1A12 inhibitor, and scrambled inhibitor was used as a control (FIG. 24). Cells were washed and OT-I Cells were added. Supernatants were analyzed for IFN gamma following 48 hour incubation.

[5] = tested on: CD200 receptor; experiment: CD11b cells of wild type or CD200 receptor knock out mice pulsed with OVA+Poly:ICLC +/- P1A12, OT-I cells added, IFN gamma; format: cell-based; conditions: wild type vs CD200 receptor knock out CD11b cells, 48 hour incubation; listed as P1A12
Method: FIG. 24. […] CD11b cells isolated for wild type or CD200 receptor knock out mice were pulsed with OVA+Poly:ICLC+/−P1A12 inhibitor. Scrambled inhibitor was use as a control. Cells were washed and OT-I Cells were added. A. Supernatants were analyzed for IFN gamma following 48 hour incubation.
as §2

SQKVSGTACLTLY [Antagonist 4006]
Cytokine profile (TNFa, IL-6, IL-2, IL-17) [1]: different cytokine profiles

TASLRCSLKTSQE [Antagonist 4004]
Tumor growth [2]: tumors grow faster in mice vaccinated with saline or tumor lysate alone compared to mice vaccinated with tumor lysate plus an antagonist
Survival [3]: results translated to a breast carcinoma (EMT6) model; also recorded: enhanced survival benefit; also recorded: significantly extended survival benefit
Cytokine profile (TNFa, IL-6, IL-2, IL-17) [1]: different cytokine profiles

LFNTFGSQKVSGT [Antagonist 4013]
Tumor growth [2]: tumors grow faster in mice vaccinated with saline or tumor lysate alone compared to mice vaccinated with tumor lysate plus an antagonist
Survival [3]: results translated to a breast carcinoma (EMT6) model; also recorded: enhanced survival benefit; also recorded: significantly extended survival benefit

RCSLKTSQE [Antagonist 6061]
Survival [3]: significantly extended survival benefit

VTWQKKKAVSPANM [Antagonist C-A12]
Survival [2]: even greater survival
Survival ([2]; listed as P1-A12): enhances survival
MDSC expansion in vivo [4]: inhibits MDSC expansion in vivo
Action on the CD200 receptor (IFN gamma in supernatants) [5]: acts as an agonist for the CD200 receptor
